Measurements: patent publication US20130172342A1, “BENZIMIDAZOLE DERIVATIVES AS SELECTIVE BLOCKERS OF PERSISTENT SODIUM CURRENT” (Allergan, Inc., priority 2011, published 2013)

What was measured:
Type in all cases: cell-based
[1] = system: transient sodium currents; experiment: IonWorks automated patch clamp, whole-cell voltage clamp; conditions: inhibition of transient sodium currents, read-out: IW IC50
Method: To determine the selectivity of effects of these compounds on the persistent current, the inhibition of transient sodium currents using an automated patch clamp was also tested for the compounds. For direct measurement of Na+ currents the IonWorks automated patch clamp system was used. The IonWorks system is a high-throughput electrophysiological instrument that performs whole-cell voltage clamp recordings in a 384-well plate format.

[2] = system: persistent sodium currents; experiment: FLIPR sodium depletion/repletion assay (voltage-sensitive dyes); conditions: for IC50: 8-point concentration-response, antagonism of persistent current; for HTS % Block: single concentration HTS protocol, inhibition of the control response
Method: To identify compounds that block persistent sodium currents, they were tested in a sodium depletion/repletion assay in which changes in the fluorescence of voltage-sensitive dyes measured in a Fluorometric Imaging Plate Reader (FLIPR) were used to infer the effects of the compounds on persistent sodium currents. The compounds were first tested in a single concentration HTS protocol.

[3] = system: Nav1.3 or Nav1.6 channels; experiment: gigohm-seal manual patch-clamp (MPC) in HEK cells stably transfected with sodium channels; conditions: for block of persistent versus transient sodium currents: FIG. 1, percentage of control current at steady state, n=3; for concentration effective in blocking 50% of the persistent current: HEK cells expressing Nav1.3 or Nav1.6, FIG. 1
Method: Nav1.3 or Nav1.6 channels were expressed in HEK cells, currents were measured using standard MPC electrophysiological techniques. Data are summarized from at least 3 experiments for each concentration tested and were normalized to the control currents before compound addition. Data are presented as the mean and standard error of the mean (n=3) of the percentage of the control current observed at steady state after compound addition.
Therefore, the efficacy and selectivity of the identified persistent current antagonists were verified using conventional gigohm-seal manual patch-clamp (MPC).
MPC experiments were conducted on human embroynic kidney (HEK) cells stably transfected with sodium channels were plated on coverslips. Cells were patch clamped using standard patch-clamp techniques (Hamill, O. P., A. Marty, et al., 1981 Pflugers Arch. 391:85-100). Once sufficient persistent current was established, buffer was introduced into the chamber at a constant flow rate of […] until the persistent current stabilized. Subsequent concentration-response experiments were conducted using this same flow rate. After application of the compound, current amplitude was monitored until equilibrium was established. The data recorded at equilibrium was normalized to the control current measured during perfusion with control buffer in the absence of a test compound. Adequate solution perfusion and gigohm seal stability were monitored throughout the experiment. The compound's antagonism of persistent or transient sodium currents is expressed as the IC5O of block for the respective current (see Table 1). Selectivity for block of the persistent current was calculated as the ratio of the IC5O for the transient current divided by the IC5O for the persistent current.
Direct measurement of the sodium current in cells expressing either Nav1.3 or
As shown for the exemplary compounds (compound #1 in Table 1 and Compound A shown below)

SMILES	IC50 [1]	IC50 [2]	HTS % Block [2]	block of persistent versus transient sodium currents [3]	concentration effective in blocking 50% of the persistent current [3]
c1ccc(OCCn2c(CN3CCOCC3)nc3ccccc32)cc1	> 30 µM	7.79 µM	99.2%		
COc1ccccc1OCCn1c(CN2CCOCC2)nc2ccccc21	> 30 µM	> 30 µM	70.1%		
Cc1cccc(OCCn2c(CN3CCOCC3)nc3ccccc32)c1C	> 30 µM	3.53 µM	97.3%		
Cc1cccc(C)c1OCCn1c(CN2CCOCC2)nc2ccccc21	> 30 µM	0.729 µM	95.2%		
C=CCc1ccc(OCCn2c(CN3CCOCC3)nc3ccccc32)c(OC)c1	≥ 30 µM	5.12 µM	70.7%		
COc1cccc(OCCn2c(CN3CCCCC3)nc3ccccc32)c1	> 30 µM	0.521 µM	96.5%		
Cc1ccc(OCCn2c(CN3CCCCC3)nc3ccccc32)cc1	> 30 µM	0.751 µM	94.6%		
CC(C)N(C(=O)Cn1c(CN2CCCCC2)nc2ccccc21)c1ccccc1	> 30 µM	6.35 µM	84.2%		
Cc1ccc(C(C)C)c(OCCn2c(CN3CCOCC3)nc3ccccc32)c1 [Compound A]				effective in blocking persistent sodium currents at concentrations that did not affect transient currents	low to submicromolar
COc1ccc(OCCn2c(CN3CCOCC3)nc3ccccc32)cc1	> 30 µM	> 30 µM	57.7%		
Cc1cccc(OCCn2c(CN3CCCCC3)nc3ccccc32)c1C	13.8 µM	0.452 µM	78.9%		
Cc1ccc(C)c(OCCn2c(CN3CCOCC3)nc3ccccc32)c1	> 30 µM	2.3 µM	92.7%		
C=CCc1ccccc1OCCn1c(CN2CCOCC2)nc2ccccc21	> 30 µM	1.14 µM	91.5%		
Cc1ccccc1OCCn1c(CN2CCOCC2)nc2ccccc21	> 30 µM	3.24 µM	92.7%		
Cc1ccc(OCCn2c(CN3CCOCC3)nc3ccccc32)c(C)c1	> 30 µM	4.52 µM	79.3%		
C/C=C/c1ccc(OCCn2c(C(C)N3CCCCC3)nc3ccccc32)c(OC)c1 (stereo not drawn)	> 30 µM	> 30 µM	34.6%		
Cc1ccc(OCCn2c(CN3CCCCC3)nc3ccccc32)cc1C	23.4 µM	0.589 µM	80.1%		
C/C=C/c1ccc(OCCn2c(CN3CCOCC3)nc3ccccc32)c(OC)c1	> 30 µM	18.2 µM	75.7%		

Now from value to compound, other results behind:

IC50 [1]	IC50 [2]	SMILES	HTS % Block [2]	block of persistent versus transient sodium currents [3]	concentration effective in blocking 50% of the persistent current [3]
> 30 µM	0.852 µM	Cc1cccc(C)c1OCCCn1c(CN2CCOCC2)nc2ccccc21	98.9%		
> 30 µM	9.81 µM	COc1ccc(OCCn2c(C(C)N3CCOCC3)nc3ccccc32)cc1 (stereo not drawn)	92.9%		
> 30 µM	5.56 µM	Cc1ccccc1OCCn1c(CN2CCCCC2)nc2ccccc21	93.6%		
> 30 µM	0.95 µM	COc1ccc(OCCn2c(C(C)N3CCCCC3)nc3ccccc32)cc1 (stereo not drawn)	95.2%		
> 30 µM	16.3 µM	CCn1c(C(C)N2CCCCC2)nc2ccccc21 (stereo not drawn)	90.6%		
> 30 µM	0.066 µM	Cc1cccc(C)c1OCCn1c(CN2CCCCC2)nc2ccccc21 [Compound #1, 1-[2-(2,6-Dimethylphenoxy)ethyl]-2-piperidin-1-ylmethyl-1H-benzimidazole]		effective in blocking persistent sodium currents at concentrations that did not affect transient currents	low to submicromolar
> 30 µM	7.85 µM	Cc1cccc(OCCn2c(CN3CCOCC3)nc3ccccc32)c1	86.5%		
> 30 µM	0.83 µM	COc1ccccc1OCCCCn1c(CN2CCCCC2)nc2ccccc21	95.5%		
> 30 µM	6.38 µM	Cc1ccc(OCCn2c(CN3CCOCC3)nc3ccccc32)cc1	92.3%		
> 30 µM	0.347 µM	COc1ccccc1OCCn1c(CN2CCCCC2)nc2ccccc21	94.8%		
30 µM	3.67 µM	CCc1ccc(OCCn2c(CN3CCOCC3)nc3ccccc32)cc1	90.8%		
27.8 µM	1.46 µM	Clc1ccc(OCCn2c(CN3CCCCC3)nc3ccccc32)cc1	80.7%		
> 30 µM	1.47 µM	Cc1cc(C)cc(OCCn2c(CN3CCOCC3)nc3ccccc32)c1	92.6%		
22.8 µM	0.559 µM	Cc1ccc(C)c(OCCn2c(CN3CCCCC3)nc3ccccc32)c1	88.9%		
